Reference: patent US20260234115A1, “LIPID COMPOUNDS, COMPOSITIONS, AND USES THEREOF” (Liberate Bio, Inc., priority 2023, published 2026)
Marks after values point to notes of the source that are not given here. Blank lines part the entries; values can stand above or below the molecule they belong to.

Experiments:
NHP organs = experiment: In vivo activity screening in non-human primates: mean normalized UMI counts of barcoded mRNA in tissues after IV infusion of pooled F2 LNPs (Table 7, FIG. 8-11); design: species or system cynomolgus monkeys (Macaca fascicularis)
Experimental: Non-human primate (NIIP) biodistribution studies were performed in cynomolgus monkeys (e.g., Macaca fascicularis), aged 4-6 years. Animals were premedicated with dexamethasone, famotidine and diphenhydramine (at 1, 0.5 and 5 mg/kg, respectively) −2 and −1 day prior to test material dosing. LNP formulations (prepared in Formulation F2 from Example 1) were prepared with ionizable lipids so that each LNP formulation encapsulates one or more mRNAs with predetermined unique barcode sequences as their cargo. LNPs in PBS, identified by their unique barcoded mRNA cargo, are then pooled together at predetermined ratios. To evaluate LNP biodistribution into tissues upon systemic administration, NHPs received the dose administration by single intravenous infusion via peripheral vein (cephalic, saphenous, or another available) for 30 minutes with LNP dosing material (individual or pooled) in PBS at different total dose (0.5-1 mg/kg) levels.
At predetermined time points (4-6 hours after pooled test material administration), animals were sacrificed by exsanguination via the femoral artery after the intravenous injection of ketamine (10 mg/kg) and Euthasol® (0.25 mL/kg). Then, all animals underwent whole-body perfusion with PBS prior to tissue collection. 20-25 mg samples for biodistribution analysis were collected from all treatment group animals and then placed in sample tubes containing RNALater™ solution. All tissue samples were stored at room temperature for 24 hours, then the supernatants were removed, and samples were frozen.
To determine the unique LNPs distributed in the tissues, samples were homogenized by a tissue homogenizer (e.g., TissueLyser). Total RNA from the tissue homogenates were extracted by standard methods. Then, normalized amounts of RNA were sequenced using a targeted RNA sequencing approach with unique molecular identifiers (UMI) to ensure accurate RNA molecule counting. For each tissue, the resulting RNA molecule counts were normalized by pooled test article RNA counts. The results were analyzed using the internal bioinformatics pipeline.
LNPs comprising MC3 used as a control and for cross-mouse comparison. Dose is in mg/kg; LC is Lipid Compound according to Table 1.
Screening results for NHP Group 1 (spleen, femur, and muscle) are shown in FIG. 8A, FIG. 8B, and FIG. 8C.

mouse organs = experiment: In vivo activity screening in mice: organ mean total flux (p/s) of luciferase activity after injection of F2 LNP pools (Table 6, FIG. 7A-7C); conditions: Mouse 9, dose 0.5 mg/kg, luciferase mRNA
Summary of the method: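 C57BL/6J mice given one tail-vein injection of pooled Formulation F2 LNPs carrying firefly luciferase mRNA (0.25-3 mg/kg) in PBS. At 4-6 h, s.c. D-luciferin given; organs imaged ex vivo by IVIS within 10-15 min, after saline cardiac perfusion. Mean total flux (p/s) per organ ROI.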

- Mean normalized UMI counts (×10^4) Bone Marrow (NHP organs; cynomolgus monkey, in vivo, iv): 233.0 ×10^4
- Mean normalized UMI counts (×10^4) Brain (NHP organs; cynomolgus monkey, in vivo, iv): 72.8 ×10^4
- Mean normalized UMI counts (×10^4) Heart (NHP organs; cynomolgus monkey, in vivo, iv): 115.8 ×10^4
- Mean normalized UMI counts (×10^4) Kidney (NHP organs; cynomolgus monkey, in vivo, iv): 153.6 ×10^4
- Mean normalized UMI counts (×10^4) Liver (NHP organs; cynomolgus monkey, in vivo, iv): 108.2 ×10^4
- Mean normalized UMI counts (×10^4) Lung (NHP organs; cynomolgus monkey, in vivo, iv): 139.5 ×10^4
- Mean normalized UMI counts (×10^4) Muscle (NHP organs; cynomolgus monkey, in vivo, iv): 142.7 ×10^4
- Mean normalized UMI counts (×10^4) Pancreas (NHP organs; cynomolgus monkey, in vivo, iv): 89.4 ×10^4
- Mean normalized UMI counts (×10^4) Spleen (NHP organs; cynomolgus monkey, in vivo, iv): 207.6 ×10^4
SMILES: CCCCC/C=C\CCOC(=O)CCCCC(=O)OCC(COC(=O)CCCCC(=O)OCC/C=C\CCCCC)(COC(=O)CCC(CCCCCC)OC(=O)NCCN1CCCC1)COC(=O)C12CC3CC(CC(C3)C1)C2 (stereo not shown) [Compound 63, O6-[2-(adamantane-1-carbonyloxymethyl)-2-[[6-[(Z)-non-3-enoxy]-6-oxo-hexanoyl]oxymethyl]-3-[4-(2-pyrrolidin-1-ylethylcarbamoyloxy)decanoyloxy]propyl]O1-[(Z)-non-3-enyl]hexanedioate]
- Organ Mean Total Flux Femur (mouse organs): 10.4 p/s (×10^6)
- Organ Mean Total Flux Heart (mouse organs): 1.9 p/s (×10^6)
- Organ Mean Total Flux Kidney (mouse organs): 2.4 p/s (×10^6)
- Organ Mean Total Flux Liver (mouse organs): 351.7 p/s (×10^6)
- Organ Mean Total Flux Lung (mouse organs): 37.3 p/s (×10^6)
- Organ Mean Total Flux Muscle (mouse organs): 37.4 p/s (×10^6)
- Organ Mean Total Flux Pancreas (mouse organs): 15.8 p/s (×10^6)
- Organ Mean Total Flux Spleen (mouse organs): 40.7 p/s (×10^6)

SMILES: CCCCC/C=C\CCOC(=O)CCCCC(=O)OCC(COC(=O)CCCCC(=O)OCC/C=C\CCCCC)(COC(=O)CCC(CCCCCC)OC(=O)C12CCN(CC1)CC2)COC(=O)CC12CC3CC(CC(C3)C1)C2 (stereo not shown) [Compound 62, O6-[2-[[2-(1-adamantyl)acetyl]oxymethyl]-2-[[6-[(Z)-non-3-enoxy]-6-oxo-hexanoyl]oxymethyl]-3-[4-(quinuclidine-4-carbonyloxy)decanoyloxy]propyl]O1-[(Z)-non-3-enyl]hexanedioate]
- Mean normalized UMI counts (×10^4) Bone Marrow (NHP organs; NHP 2, bone marrow, pooled F2 LNPs, IV infusion, 4-6 hours): 19.0 ×10^4
- Mean normalized UMI counts (×10^4) Brain (NHP organs; NHP 2, brain, pooled F2 LNPs, IV infusion, 4-6 hours): 3.8 ×10^4
- Mean normalized UMI counts (×10^4) Heart (NHP organs; NHP 2, heart, pooled F2 LNPs, IV infusion, 4-6 hours): 87.0 ×10^4
- Mean normalized UMI counts (×10^4) Kidney (NHP organs; NHP 2, kidney, pooled F2 LNPs, IV infusion, 4-6 hours): 21.9 ×10^4
- Mean normalized UMI counts (×10^4) Liver (NHP organs; NHP 2, liver, pooled F2 LNPs, IV infusion, 4-6 hours): 27.4 ×10^4
- Mean normalized UMI counts (×10^4) Lung (NHP organs; NHP 2, lung, pooled F2 LNPs, IV infusion, 4-6 hours): 21.8 ×10^4
- Mean normalized UMI counts (×10^4) Muscle (NHP organs; NHP 2, muscle, pooled F2 LNPs, IV infusion, 4-6 hours): 43.9 ×10^4
- Mean normalized UMI counts (×10^4) Pancreas (NHP organs; NHP 2, pancreas, pooled F2 LNPs, IV infusion, 4-6 hours): 8.1 ×10^4
- Mean normalized UMI counts (×10^4) Spleen (NHP organs; NHP 2, spleen, pooled F2 LNPs, IV infusion, 4-6 hours): 29.8 ×10^4
- Organ Mean Total Flux Femur (mouse organs): 0.6 p/s (×10^6)
- Organ Mean Total Flux Heart (mouse organs): 0.1 p/s (×10^6)
- Organ Mean Total Flux Kidney (mouse organs): 0.3 p/s (×10^6)
- Organ Mean Total Flux Liver (mouse organs): 38.0 p/s (×10^6)
- Organ Mean Total Flux Lung (mouse organs): 2.5 p/s (×10^6)
- Organ Mean Total Flux Muscle (mouse organs): 1.4 p/s (×10^6)
- Organ Mean Total Flux Pancreas (mouse organs): 0.5 p/s (×10^6)
- Organ Mean Total Flux Spleen (mouse organs): 3.3 p/s (×10^6)
